{"source": "patent US6896883B2", "about": "(priority 1997, dated 2005)", "system": "F. graminearum", "format": "in vivo", "conditions": "wheat seeds in F. graminearum-infested soil, 7 days after planting", "data": [{"compound": "c1ccc2[nH]c(-c3cscn3)nc2c1", "note": "[Thiabendazole, thiabendazole]", "values": [{"measurement": "% Germination", "value": 80, "unit": "a %"}]}]}
